Test results reported in patent publication US12226414B2, “1-isopropyl-3-methyl-8-(pyridin-3-yl)-1,3-dihydro-2H-imidazo[4,5-c] cinnolin-2-one as selective modulators of ataxia telangiectasia mutated (ATM) kinase and uses thereof” (SUZHOU ZANRONG PHARMA LIMITED, priority 2018, dated 2025).

How the values were obtained:
[1] = target: ATR (Homo sapiens (Human), UniProt Q13535); assay: ATR biochemical potency assay
Description: ATR enzyme was made by ChemPartner (batch: CP-ATR-20161102-M2). 2× enzyme solutions were prepared in 1× kinase base buffer. 10 μl of 2× enzyme solution (final concentration: 2.5 nM) was added to each well of the 384-well assay plate containing 60 nl compound in each well. The plate was incubated at room temperature for 10 minutes. 2× peptide solutions were prepared with FAM-labeled peptide and ATP in the 1× kinase base buffer. 10 μl of 2× peptide solution was added to each well of the 384-well assay plate, which was incubated at 28° C. for 240 min. 40 μl of stop buffer was added to stop reaction. Data were collected by Caliper.

[2] = target: PIK3Cγ (pp110γ) (Homo sapiens (Human), UniProt P48736); assay: PI3K biochemical potency assay (PI3Kγ)
Description: (§1) PI3Kα (p110α/p85a), PIK3C δ, PIK3Cβ (p110β), PIK3Cγ (pp110γ) kinase reaction solutions of PI3Kα (Invitrogen, Cat. No. PV4788), PIK3Cδ (Invitrogen, Cat. No. PV6452), PIK3Cβ (Millipore, Cat. No. 14-603-K), PIK3Cγ (Invitrogen, Cat. No. PR8641C) enzymes were prepared in 1× kinase buffer at 4-fold of the final concentration (final concentration: PI3Kα 0.7 nM, PIK3Cδ 3 nM, PIK3Cβ 4.8 nM, PIK3Cγ 11 nM) of each reagent in the assay. 2.5 μl of kinase solution was added to each well of the 384-well assay plate, which contains 2.5 μl of compounds with serially diluted concentration. 2× substrate solution was prepared with PIP2 substrate and ATP in 1× kinase reaction buffer at 2-fold of the final concentration of each reagent in the assay. 5 μl of substrate solution was added to each well of the assay plate to start reaction. The assay plate was incubated at room temperature for 1 hour. 5 μl reaction mix was transferred to a new 384 well plate. 5 μl of ADP-Glo reagent (Promega, Cat. No. v9102/3, Lot. No. 0000176563) was added to each well of the new assay plate to stop the reaction. The plate was shaken slowly and equilibrated for 40 minutes. 10 μl kinase detection reagents was added to each well, which was equilibrated for 60 minutes before read on a plate reader (Envision) for luminescence.

[3] = target: PIK3Cδ (Homo sapiens (Human), UniProt O00329); assay: PI3K biochemical potency assay (PI3Kδ)
Description: as §1

[4] = target: ATM in SN38 treated HT-29 cells (Homo sapiens (Human), UniProt Q13315); assay: ATM SN-38 HT-29 cellular potency assay
Description: Inhibition of ATM was evaluated in SN38 treated HT-29 cells (ATCC, Cat #HTB-38) by high-Content Imaging System
HT-29 cells were trypsinized and approximately 10,000 cells were seeded per well to 96-well microplates which were incubated overnight at 37° C. and 5% CO2. Test compounds were added to the 96-well plates which were incubated at 37° C. and 5% CO2 for 1 hour. […] After the plates were rinsed 3 times with PBSA, 50 μl permeabilization buffer (0.1% Triton-X 100 in PBSA) was added and the plates were incubated for 20 minutes at room temperature. After the plates were rinsed once with PBSA, 50 μl primary antibody solution was added and the plates were incubated in at 4° C. overnight. […] The plates were rinsed with PBST 3 times and then 100 μl PBSA were added per well. The plates were sealed with black plate seals.

[5] = target: mTOR (Homo sapiens (Human), UniProt P42345); assay: mTOR biochemical potency assay
Description: Solution of mTOR enzymes (Millipore, Cat. No. 14-770, Lot. No. 2052551) was prepared in 1× kinase buffer at 4-fold of the final concentration (final concentration: 6 nM) in the assay. 2.5 μl of kinase solution was added to each well of the 384-well assay plate, which contains 2.5 μl of compounds with serially diluted concentration. 2× substrate solution was prepared with ULight-4E-BP1 (Thr37/46) Peptide (PE, Cat. No. TRF0128-M, Lot. No. 1695274) and ATP in 1× kinase reaction buffer at 2-fold of the final concentration of each reagent in the assay. 5 μl of substrate solution was added to each well of the assay plate to start reaction. The assay plate was incubated at room temperature for 30 minutes. Detection solution of kinase quench buffer (EDTA) and Eu-anti-phospho-4E-BP1 antibody (Thr37/46) (PE, Cat. No. TRF0216-M, Lot. No. 1571838) were prepared at 2-fold the desired final concentrations of each reagent in Lance detection buffer. 10 μl of detection solution buffer was added to each well of the assay plate. The assay plate was equilibrated for 60 minutes at room temperature before read on a plate reader (Lance signal (665 nm) from Envision program).

[6] = target: PI3Kα (p110α/p85a) (Homo sapiens (Human), UniProt P42336); assay: PI3K biochemical potency assay (PI3Kα)
Description: as §1

[7] = target: PIK3Cβ (p110β) (Homo sapiens (Human), UniProt P42338); assay: PI3K biochemical potency assay (PI3Kβ)
Description: as §1

[8] = target: ATM (Homo sapiens (Human), UniProt Q13315); assay: ATM biochemical potency assay
Description: The plate was incubated at room temperature for 10 minutes. […] Data was collected by Caliper.

[9] = target: hERG channel (Homo sapiens (Human), UniProt Q12809); assay: hERG safety assessment, manual patch clamp; settings: for hERG inhibition @10 μM: HEK 293 cells stably expressing hERG
Description: Inhibition of hERG channel was conducted in HEK 293 cell line stably expressing hERG channel by manual patch clamp.

[10] = target: P-glycoprotein (Pgp) (Homo sapiens (Human), UniProt P08183); assay: MDCK-MDR1 Pgp assessment
Description: Efflux transport mediated by P-glycoprotein (Pgp) was assessed by MDCK-MDR1 cells. The final concentrations of test compounds and control compound were at 1 μM. The multiwell insert plate was incubated at 37° C. for 2 hours.

[11] = target: T1, aldehyde oxidase (AO) (Homo sapiens (Human), UniProt Q06278); assay: in vitro; settings: human liver cytosol
[12] = cited from earlier work; for clearance as % liver blood flow: humans
[13] = target: T1, aldehyde oxidase (AO); assay: Aldehyde oxidase assay in human liver cytosol; settings: human liver cytosol 1 mg/mL, 0.5 μM compound
[14] = target: BCRP (Homo sapiens (Human), UniProt Q9UNQ0); assay: Caco-2 BCRP assessment; type: in vitro ADME; settings: −inhibitor/+inhibitor (novobiocin 30 μM)
Description: Caco-2 cells was used to study efflux transport mediated by BCRP.

Chain of PIK3Cδ (O00329 whole entry, looked up): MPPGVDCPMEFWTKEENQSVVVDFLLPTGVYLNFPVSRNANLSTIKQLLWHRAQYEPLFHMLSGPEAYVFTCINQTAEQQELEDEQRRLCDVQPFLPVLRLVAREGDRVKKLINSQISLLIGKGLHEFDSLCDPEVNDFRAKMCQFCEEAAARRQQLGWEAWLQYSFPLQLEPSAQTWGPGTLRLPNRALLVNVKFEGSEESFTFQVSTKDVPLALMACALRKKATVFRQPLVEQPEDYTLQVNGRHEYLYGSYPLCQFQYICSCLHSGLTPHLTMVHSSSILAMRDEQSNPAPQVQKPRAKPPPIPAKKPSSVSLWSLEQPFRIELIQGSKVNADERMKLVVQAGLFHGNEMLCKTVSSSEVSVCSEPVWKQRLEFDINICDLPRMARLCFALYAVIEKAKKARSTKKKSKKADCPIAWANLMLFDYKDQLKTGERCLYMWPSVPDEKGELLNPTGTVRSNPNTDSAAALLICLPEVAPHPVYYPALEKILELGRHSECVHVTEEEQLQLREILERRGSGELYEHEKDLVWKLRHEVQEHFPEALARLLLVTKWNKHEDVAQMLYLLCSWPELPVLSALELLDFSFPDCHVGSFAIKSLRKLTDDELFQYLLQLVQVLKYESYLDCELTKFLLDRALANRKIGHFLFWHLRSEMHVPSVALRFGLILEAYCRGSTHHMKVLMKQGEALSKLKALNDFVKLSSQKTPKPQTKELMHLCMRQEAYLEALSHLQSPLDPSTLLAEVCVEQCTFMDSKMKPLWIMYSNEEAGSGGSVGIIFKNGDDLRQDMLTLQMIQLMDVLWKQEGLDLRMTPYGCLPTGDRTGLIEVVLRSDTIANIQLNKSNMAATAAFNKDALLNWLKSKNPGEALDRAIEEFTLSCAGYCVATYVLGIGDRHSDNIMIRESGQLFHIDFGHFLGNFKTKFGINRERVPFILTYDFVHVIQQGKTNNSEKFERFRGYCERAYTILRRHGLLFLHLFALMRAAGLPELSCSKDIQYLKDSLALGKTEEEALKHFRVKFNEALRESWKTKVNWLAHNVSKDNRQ
Chain of PIK3Cδ (P27986 whole entry partner, looked up): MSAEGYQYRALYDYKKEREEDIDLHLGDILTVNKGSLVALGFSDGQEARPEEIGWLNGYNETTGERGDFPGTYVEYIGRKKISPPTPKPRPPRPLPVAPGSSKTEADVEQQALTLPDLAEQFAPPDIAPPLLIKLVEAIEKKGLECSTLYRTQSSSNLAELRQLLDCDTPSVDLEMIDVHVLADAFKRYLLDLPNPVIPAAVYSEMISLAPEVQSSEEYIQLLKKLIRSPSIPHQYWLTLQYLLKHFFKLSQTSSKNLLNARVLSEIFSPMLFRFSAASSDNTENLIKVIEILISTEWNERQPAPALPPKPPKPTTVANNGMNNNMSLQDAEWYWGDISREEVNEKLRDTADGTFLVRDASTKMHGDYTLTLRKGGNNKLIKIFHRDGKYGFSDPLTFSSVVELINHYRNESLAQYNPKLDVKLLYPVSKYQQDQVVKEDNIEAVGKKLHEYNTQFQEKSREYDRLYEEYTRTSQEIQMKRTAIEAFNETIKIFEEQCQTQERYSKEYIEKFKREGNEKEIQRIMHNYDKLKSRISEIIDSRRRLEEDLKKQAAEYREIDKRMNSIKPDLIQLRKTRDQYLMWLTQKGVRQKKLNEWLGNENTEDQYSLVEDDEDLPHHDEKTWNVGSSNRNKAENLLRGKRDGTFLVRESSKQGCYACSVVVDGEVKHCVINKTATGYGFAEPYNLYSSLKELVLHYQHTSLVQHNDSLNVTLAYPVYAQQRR
Chain of PIK3Cβ (p110β) (P42338 whole entry, looked up): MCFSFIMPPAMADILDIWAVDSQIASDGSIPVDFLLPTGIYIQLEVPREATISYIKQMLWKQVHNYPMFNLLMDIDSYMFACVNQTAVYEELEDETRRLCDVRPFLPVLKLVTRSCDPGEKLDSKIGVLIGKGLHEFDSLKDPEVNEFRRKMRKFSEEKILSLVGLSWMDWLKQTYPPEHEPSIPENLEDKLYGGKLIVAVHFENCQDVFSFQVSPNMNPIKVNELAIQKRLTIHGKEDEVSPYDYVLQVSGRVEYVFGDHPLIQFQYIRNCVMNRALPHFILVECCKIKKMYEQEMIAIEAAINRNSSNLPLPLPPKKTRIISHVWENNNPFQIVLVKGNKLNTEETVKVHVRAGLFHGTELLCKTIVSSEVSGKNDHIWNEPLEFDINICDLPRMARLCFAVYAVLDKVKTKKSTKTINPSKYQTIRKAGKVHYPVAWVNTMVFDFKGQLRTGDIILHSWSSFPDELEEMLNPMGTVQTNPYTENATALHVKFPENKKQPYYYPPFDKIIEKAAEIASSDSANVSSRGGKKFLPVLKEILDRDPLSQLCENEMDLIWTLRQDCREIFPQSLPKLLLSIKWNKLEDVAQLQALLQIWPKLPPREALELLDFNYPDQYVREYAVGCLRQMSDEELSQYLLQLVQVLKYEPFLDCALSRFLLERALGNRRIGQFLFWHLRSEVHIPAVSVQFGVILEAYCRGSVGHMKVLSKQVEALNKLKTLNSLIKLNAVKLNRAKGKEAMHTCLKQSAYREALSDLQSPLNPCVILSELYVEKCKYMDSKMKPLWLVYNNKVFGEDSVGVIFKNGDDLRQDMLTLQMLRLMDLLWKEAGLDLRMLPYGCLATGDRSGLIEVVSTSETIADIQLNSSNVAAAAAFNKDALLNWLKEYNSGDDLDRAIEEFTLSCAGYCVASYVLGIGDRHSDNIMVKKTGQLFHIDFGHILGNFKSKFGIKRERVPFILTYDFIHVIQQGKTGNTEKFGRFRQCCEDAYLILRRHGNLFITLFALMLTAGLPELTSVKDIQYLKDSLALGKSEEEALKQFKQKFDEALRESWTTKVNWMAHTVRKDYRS
Chain of PIK3Cβ (p110β) (P27986 whole entry partner, looked up): as the sequence (P27986 whole entry partner, looked up) above
Chain of PIK3Cγ (pp110γ) (P48736 whole entry): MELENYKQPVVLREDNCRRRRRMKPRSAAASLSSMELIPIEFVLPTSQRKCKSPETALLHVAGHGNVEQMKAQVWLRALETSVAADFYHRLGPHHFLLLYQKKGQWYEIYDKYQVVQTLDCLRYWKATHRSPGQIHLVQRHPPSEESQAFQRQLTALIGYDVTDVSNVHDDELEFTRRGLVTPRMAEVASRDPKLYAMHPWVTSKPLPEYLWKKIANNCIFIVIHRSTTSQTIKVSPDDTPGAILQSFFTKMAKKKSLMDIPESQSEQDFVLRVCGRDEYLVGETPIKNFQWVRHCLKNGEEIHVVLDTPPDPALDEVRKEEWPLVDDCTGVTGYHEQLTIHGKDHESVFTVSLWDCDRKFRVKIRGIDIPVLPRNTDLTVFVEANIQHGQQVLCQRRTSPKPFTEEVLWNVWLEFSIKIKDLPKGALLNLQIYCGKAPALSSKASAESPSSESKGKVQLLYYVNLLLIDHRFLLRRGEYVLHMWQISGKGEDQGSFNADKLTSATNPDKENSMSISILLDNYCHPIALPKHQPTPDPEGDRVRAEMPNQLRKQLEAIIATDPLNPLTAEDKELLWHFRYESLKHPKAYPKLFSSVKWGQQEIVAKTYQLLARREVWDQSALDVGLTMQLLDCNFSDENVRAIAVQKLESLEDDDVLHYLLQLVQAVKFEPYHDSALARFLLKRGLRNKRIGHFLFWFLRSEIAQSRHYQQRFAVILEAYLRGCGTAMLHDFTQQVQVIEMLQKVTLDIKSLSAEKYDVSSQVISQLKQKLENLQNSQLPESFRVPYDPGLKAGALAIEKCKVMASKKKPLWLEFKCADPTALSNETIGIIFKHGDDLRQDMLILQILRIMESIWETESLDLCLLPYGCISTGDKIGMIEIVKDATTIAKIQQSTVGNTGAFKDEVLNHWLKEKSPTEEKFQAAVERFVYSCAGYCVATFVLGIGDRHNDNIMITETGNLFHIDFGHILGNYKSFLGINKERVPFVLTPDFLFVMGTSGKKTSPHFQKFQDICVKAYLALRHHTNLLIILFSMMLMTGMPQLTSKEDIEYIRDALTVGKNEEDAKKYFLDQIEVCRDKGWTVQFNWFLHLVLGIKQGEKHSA
Chain of PI3Kα (p110α/p85a) (P42336 whole entry, looked up): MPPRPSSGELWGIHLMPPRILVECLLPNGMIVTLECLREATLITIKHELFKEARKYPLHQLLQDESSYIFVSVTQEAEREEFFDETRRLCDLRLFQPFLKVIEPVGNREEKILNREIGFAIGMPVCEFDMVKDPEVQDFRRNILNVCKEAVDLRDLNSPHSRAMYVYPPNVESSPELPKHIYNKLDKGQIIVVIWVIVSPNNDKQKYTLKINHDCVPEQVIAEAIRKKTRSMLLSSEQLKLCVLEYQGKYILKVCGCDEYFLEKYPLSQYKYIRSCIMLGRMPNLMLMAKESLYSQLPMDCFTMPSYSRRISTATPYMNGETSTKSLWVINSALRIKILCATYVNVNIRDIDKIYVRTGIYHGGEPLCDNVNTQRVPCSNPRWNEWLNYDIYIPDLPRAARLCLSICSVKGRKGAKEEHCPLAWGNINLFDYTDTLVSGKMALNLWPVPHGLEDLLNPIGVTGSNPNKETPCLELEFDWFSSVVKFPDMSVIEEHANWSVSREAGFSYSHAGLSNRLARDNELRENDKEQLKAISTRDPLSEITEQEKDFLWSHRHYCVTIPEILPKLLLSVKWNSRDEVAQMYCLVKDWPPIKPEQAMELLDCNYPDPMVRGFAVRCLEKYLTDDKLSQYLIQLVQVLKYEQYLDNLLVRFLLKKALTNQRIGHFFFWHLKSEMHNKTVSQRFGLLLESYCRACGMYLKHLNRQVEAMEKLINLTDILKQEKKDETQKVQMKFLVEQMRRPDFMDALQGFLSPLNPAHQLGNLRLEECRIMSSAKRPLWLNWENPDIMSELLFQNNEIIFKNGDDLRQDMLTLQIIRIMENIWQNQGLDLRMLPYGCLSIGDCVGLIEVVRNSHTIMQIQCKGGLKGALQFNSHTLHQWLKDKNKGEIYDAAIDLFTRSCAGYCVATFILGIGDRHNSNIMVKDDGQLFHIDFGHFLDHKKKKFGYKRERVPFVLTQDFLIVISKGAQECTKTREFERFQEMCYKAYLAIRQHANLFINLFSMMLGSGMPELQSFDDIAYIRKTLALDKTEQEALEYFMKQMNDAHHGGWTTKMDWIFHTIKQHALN
Chain of PI3Kα (p110α/p85a) (P27986 whole entry partner, looked up): as the sequence (P27986 whole entry partner, looked up) above

| SMILES | IC50 [1] | IC50 [2] | IC50 [3] | IC50 [4] | IC50 [5] | IC50 [6] | IC50 [7] | IC50 [8] | other results |
| --- | --- | --- | --- | --- | --- | --- | --- | --- | --- |
| CC(C)n1c(=O)n(C)c2nnc3cc(F)c(-c4ccc(COCCN5CCCCC5)nc4)cc3c21 [Example 7, 7-fluoro-1-isopropyl-3-methyl-8-(6-((2-(piperidin-1-yl)ethoxy)methyl)pyridin-3-yl)-1H-imidazo[4,5-c]cinnolin-2(3H)-one] | > 10 µM | > 10 µM | > 10 µM | 274 nM | > 10 µM | > 10 µM | > 10 µM | 26 nM | – |
| CC(C)n1c(=O)n(C)c2nnc3cc(F)c(-c4ccc(COCCN5CC6CC6C5)nc4)cc3c21 (stereo not drawn) [Example 11, 8-(6-((2-(3-azabicyclo[3.1.0]hexan-3-yl)ethoxy)methyl)pyridin-3-yl)-7-fluoro-1-isopropyl-3-methyl-1H-imidazo[4,5-c]cinnolin-2(3H)-one] | > 10 µM | > 10 µM | > 10 µM | 18 nM | > 10 µM | > 10 µM | > 10 µM | 37 nM | – |
| CC(C)n1c(=O)n(C)c2nnc3cc(F)c(-c4ccc(OCCCN5CCC(F)CC5)nc4)cc3c21 [Example 13, 7-fluoro-8-(6-(3-(4-fluoropiperidin-1-yl)propoxy)pyridin-3-yl)-1-isopropyl-3-methyl-1H-imidazo[4,5-c]cinnolin-2(3H)-one] | > 10 µM | > 10 µM | > 10 µM | 27 nM | > 10 µM | > 10 µM | > 10 µM | > 1000 nM | – |
| CC(C)n1c(=O)n(C)c2nnc3cc(F)c(-c4ccc(OCCCN5CC6CC6C5)nc4)cc3c21 (stereo not drawn) [Example 16, 8-(6-(3-(3-azabicyclo[3.1.0]hexan-3-yl)propoxy)pyridin-3-yl)-7-fluoro-1-isopropyl-3-methyl-1H-imidazo[4,5-c]cinnolin-2(3H)-one] | > 10 µM | > 10 µM | > 10 µM | 18.5 nM | > 10 µM | > 10 µM | > 10 µM | > 1000 nM | – |
| CC(C)n1c(=O)n(C)c2cnc3cc(F)c(-c4ccc(OCCCN5CCCCC5)nc4)cc3c21 [Ref. Comp. 3, AZD1390] | – | – | – | – | – | – | – | – | hERG liability (in words) [9]: significant hERG inhibition; hERG inhibition @10 μM [9]: 79%; Pgp substrate (in words) [10]: not a Pgp substrate |
| CCN(C(C)=O)c1cccc(-c2ccnc3c(C#N)cnn23)c1 [Ref. Comp. 4, N-[3-(3-cyanopyrazolo[1,5-a]pyrimidin-7-yl)phenyl]-N-ethylacetamide] | – | – | – | – | – | – | – | – | microsomal CLint at 0.5 μM [11]: 3.1 µL/min/mg; clearance as % liver blood flow [12]: ~80 % liver blood flow; AO intrinsic clearance [13]: 3.1 μL/min/mg protein |
| OCCn1cc(-c2cnc3nnn(Cc4ccc5ncccc5c4)c3n2)cn1 [Ref. Comp. 5, 2-[4-[3-(quinolin-6-ylmethyl)triazolo[4,5-b]pyrazin-5-yl]pyrazol-1-yl]ethanol] | – | – | – | – | – | – | – | – | clearance in humans [12]: 6 mL/min/kg; clearance as % liver blood flow [12]: ~30 % liver blood flow |
| CN(C)CCCOc1ccc(-c2ccc3nnc4c(c3c2)n(C2CCOCC2)c(=O)n4C)cn1 [compound 1, 8-[6-(3-dimethylamino-propoxy)-pyridin-3-yl]-3-methyl-1-(tetrahydro-2H-pyran-4-yl)-1H-imidazo[4,5-c]cinnolin-2(3H)-one] | – | – | – | 112 nM | – | – | – | 2.9 nM | hERG inhibition @10 μM [9]: 58%; efflux ratio at 2 h, 1 μM ([10]; human): 5.6; efflux ratio at 2 h, 1 μM [14]: 0.62 |
